Where a name gives a salt, the structure may show the parent alone.
Tests used:
[1] = target: ER in MCF-7 cells (Homo sapiens (Human), UniProt P03372); experiment: In-cell western (ICW) ER degradation assay in MCF-7 cells (Compounds A1-A70); type: cell-based; details: MCF-7 cells, 16 hrs treatment; for DC50: ER degradation, 0.02 to 300 nM, read-out: MCF7 ICW DC50; for Dmax: MCF7, maximal ER degradation, read-out: MCF7 ICW Dmax (%)
[2] = target: CRBN/DDB1 (Homo sapiens (Human), UniProt Q96SW2); type: binding; details: His tagged CRBN+DDB-DLS7+CXU4, Cy5-labeled Thalidomide probe, one hour incubation; read-out: CRBN HTRF IC50
Method: The binding potency was determined using H-TRF assay technology (Perkin Elmer). Compounds were serially diluted in DMSO and 0.2 μL volume was transferred to white 384-well plate.

[3] = target: ER in T47D cells (Homo sapiens (Human), UniProt P03372); experiment: In-cell western (ICW) ER degradation assay in T47D cells (Compounds A1-A70); type: cell-based; details: T47D cells, 16 hrs treatment; for DC50: ER degradation, 0.02 to 300 nM; for Dmax: T47D, maximal ER degradation, read-out: T47D ICW Dmax (%)
ER in T47D cells, sequence (P03372 whole entry): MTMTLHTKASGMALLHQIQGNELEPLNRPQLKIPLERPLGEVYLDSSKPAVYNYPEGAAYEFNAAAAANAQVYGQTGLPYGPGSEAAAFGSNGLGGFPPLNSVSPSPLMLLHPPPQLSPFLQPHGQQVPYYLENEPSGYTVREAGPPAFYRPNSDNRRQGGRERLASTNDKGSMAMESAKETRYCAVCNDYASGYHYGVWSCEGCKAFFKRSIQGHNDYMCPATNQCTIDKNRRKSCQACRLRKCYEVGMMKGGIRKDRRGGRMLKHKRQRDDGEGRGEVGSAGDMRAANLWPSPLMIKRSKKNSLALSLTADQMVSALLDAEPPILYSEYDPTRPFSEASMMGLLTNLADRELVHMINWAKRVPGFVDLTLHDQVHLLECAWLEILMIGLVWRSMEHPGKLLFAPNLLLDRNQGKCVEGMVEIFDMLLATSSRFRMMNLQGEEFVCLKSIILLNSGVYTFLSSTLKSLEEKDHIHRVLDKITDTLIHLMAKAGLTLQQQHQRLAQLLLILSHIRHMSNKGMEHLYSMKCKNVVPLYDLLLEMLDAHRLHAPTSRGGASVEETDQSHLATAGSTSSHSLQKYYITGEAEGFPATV

CRBN/DDB1, sequence (Q96SW2 whole entry): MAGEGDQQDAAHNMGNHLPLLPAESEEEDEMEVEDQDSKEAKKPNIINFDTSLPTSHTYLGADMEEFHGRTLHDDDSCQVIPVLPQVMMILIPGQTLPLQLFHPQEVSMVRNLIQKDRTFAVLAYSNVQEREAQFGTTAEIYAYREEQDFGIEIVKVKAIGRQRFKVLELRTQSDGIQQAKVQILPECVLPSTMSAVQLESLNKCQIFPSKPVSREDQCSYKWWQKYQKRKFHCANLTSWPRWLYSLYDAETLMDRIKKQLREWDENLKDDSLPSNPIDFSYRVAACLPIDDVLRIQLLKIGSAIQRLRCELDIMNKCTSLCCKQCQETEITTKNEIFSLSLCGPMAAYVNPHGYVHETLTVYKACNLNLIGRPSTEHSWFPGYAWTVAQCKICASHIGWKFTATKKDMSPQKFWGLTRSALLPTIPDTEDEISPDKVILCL
CRBN/DDB1, sequence (Q16531 whole entry partner): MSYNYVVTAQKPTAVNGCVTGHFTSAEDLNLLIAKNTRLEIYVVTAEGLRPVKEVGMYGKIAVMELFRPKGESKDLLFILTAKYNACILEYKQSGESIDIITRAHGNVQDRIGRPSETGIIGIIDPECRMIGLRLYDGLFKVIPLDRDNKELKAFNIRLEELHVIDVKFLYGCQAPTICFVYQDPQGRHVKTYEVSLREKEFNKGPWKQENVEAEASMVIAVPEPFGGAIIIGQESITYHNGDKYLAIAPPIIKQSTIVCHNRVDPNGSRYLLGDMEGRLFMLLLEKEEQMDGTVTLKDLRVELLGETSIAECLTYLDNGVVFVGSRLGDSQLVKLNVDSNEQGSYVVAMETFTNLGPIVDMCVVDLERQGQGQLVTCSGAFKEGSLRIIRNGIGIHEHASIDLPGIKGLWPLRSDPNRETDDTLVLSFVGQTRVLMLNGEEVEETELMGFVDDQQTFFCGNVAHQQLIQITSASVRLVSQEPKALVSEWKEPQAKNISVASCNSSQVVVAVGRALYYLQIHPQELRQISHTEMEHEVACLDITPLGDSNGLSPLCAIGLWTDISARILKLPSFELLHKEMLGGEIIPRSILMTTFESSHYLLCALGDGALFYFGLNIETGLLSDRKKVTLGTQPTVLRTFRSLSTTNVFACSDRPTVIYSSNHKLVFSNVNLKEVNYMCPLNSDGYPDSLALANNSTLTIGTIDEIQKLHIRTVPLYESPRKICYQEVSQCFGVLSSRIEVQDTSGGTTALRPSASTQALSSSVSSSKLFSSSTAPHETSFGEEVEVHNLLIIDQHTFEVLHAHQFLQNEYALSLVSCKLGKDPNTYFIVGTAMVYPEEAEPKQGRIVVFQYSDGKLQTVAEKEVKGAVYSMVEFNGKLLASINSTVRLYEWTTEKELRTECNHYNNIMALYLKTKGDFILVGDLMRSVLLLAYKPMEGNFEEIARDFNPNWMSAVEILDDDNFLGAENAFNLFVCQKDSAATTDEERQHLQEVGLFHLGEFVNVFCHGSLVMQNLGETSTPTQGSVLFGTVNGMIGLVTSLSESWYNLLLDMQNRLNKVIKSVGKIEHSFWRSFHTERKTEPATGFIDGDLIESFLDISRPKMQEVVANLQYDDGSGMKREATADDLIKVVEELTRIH
ER in MCF-7 cells, sequence (P03372 whole entry): as the sequence (P03372 whole entry) above

Row | SMILES | DC50 [1] [nM] | Dmax [1] [%] | IC50 [2] [nM] | DC50 [3] [nM] | Dmax [3] [%]
1 | C[C@@H]1Cc2c([nH]c3ccccc23)[C@@H](c2cnc(N3CCO[C@H](CN4CCN5c6cc7c(cc6OC[C@@H]5C4)C(=O)N(C4CCC(=O)NC4=O)C7)C3)nc2)N1CC(C)(C)F (stereo partly drawn) [Compound A22, 3-((S)-3-(((R)-4-(5-((1R,3R)-2-(2-fluoro-2-methylpropyl)-3-methyl-2,3,4,9-tetrahydro-1H-pyrido[3,4-b]indol-1-yl)pyrimidin-2-yl)morpholin-2-yl)methyl)-8-oxo-1,2,3,4,4a,5,8,10-octahydro-9H-pyrazino[1′,2′:4,5][1,4]oxazino[2,3-f]isoindol-9-yl)piperidine-2,6-dione] | 1 to 10 | 25 to 50 | 50 to 500 | < 1 | 25 to 50
2 | C[C@H]1Cc2c([nH]c3ccccc23)[C@H](c2cnc(N3CCC4(CC3)C[C@H](CN3CCN5c6ccc7c(c6OC[C@@H]5C3)CN([C@@H]3CCC(=O)NC3=O)C7=O)CO4)nc2)N1CC(F)F [Compound A58, (R)-3-((S)-7-(((R)-8-(5-((1S,3S)-2-(2,2-difluoroethyl)-3-methyl-2,3,4,9-tetrahydro-1H-pyrido[3,4-b]indol-1-yl)pyrimidin-2-yl)-1-oxa-8-azaspiro[4.5]decan-3-yl)methyl)-1-oxo-1,3,5,5a,6,7,8,9-octahydro-2H-pyrazino[1′,2′:4,5][1,4]oxazino[2,3-e]isoindol-2-yl)piperidine-2,6-dione] | < 1 | 50 to 75 | 50 to 500 | < 1 | 50 to 75
3 | COc1cc(N2CCC(CN3CCN(c4ccc(C(=O)NC5CCC(=O)NC5=O)nc4OC)CC3)CC2)ccc1[C@@H]1c2[nH]c3ccccc3c2C[C@@H](C)N1CC(F)F (stereo partly drawn) [Compound A52, 5-(4-((1-(4-((1R,3R)-2-(2,2-difluoroethyl)-3-methyl-2,3,4,9-tetrahydro-1H-pyrido[3,4-b]indol-1-yl)-3-methoxyphenyl)piperidin-4-yl)methyl)piperazin-1-yl)-N-(2,6-dioxopiperidin-3-yl)-6-methoxypicolinamide] | < 1 | 25 to 50 | > 5000 | 1 to 10 | 25 to 50
4 | COc1cc(N2CCC(CN3CCN(c4ccc(NC5CCC(=O)NC5=O)cc4F)CC3)CC2)ccc1[C@@H]1c2[nH]c3ccccc3c2C[C@@H](C)N1CC(F)F (stereo partly drawn) [Compound A31, 3-((4-(4-((1-(4-((1R,3R)-2-(2,2-difluoroethyl)-3-methyl-2,3,4,9-tetrahydro-1H-pyrido[3,4-b]indol-1-yl)-3-methoxyphenyl)piperidin-4-yl)methyl)piperazin-1-yl)-3-fluorophenyl)amino)piperidine-2,6-dione] | < 1 | 25 to 50 | < 50 | 1 to 10 | 25 to 50
5 | C[C@H]1Cc2c([nH]c3ccccc23)[C@H](c2ccc(N3CCC(CN4CCN5c6cc7c(cc6OC[C@H]5C4)C(=O)N([C@@H]4CCC(=O)NC4=O)C7)CC3)cn2)N1CC(F)(F)F [Compound A64, (R)-3-((R)-3-((1-(6-((1R,3S)-3-methyl-2-(2,2,2-trifluoroethyl)-2,3,4,9-tetrahydro-1H-pyrido[3,4-b]indol-1-yl)pyridin-3-yl)piperidin-4-yl)methyl)-8-oxo-1,2,3,4,4a,5,8,10-octahydro-9H-pyrazino[1′,2′:4,5][1,4]oxazino[2,3-f]isoindol-9-yl)piperidine-2,6-dione] | > 100 | < 25 | 500 to 5000 | > 100 | < 25
6 | COc1cc(N2CCC(CN3CCN4c5ccc6c(c5OC[C@@H]4C3)CN([C@@H]3CCC(=O)NC3=O)C6=O)CC2)ccc1[C@@H]1c2[nH]c3ccccc3c2C[C@@H](C)N1CC(F)F [Compound A42, (R)-3-((S)-7-((1-(4-((1R,3R)-2-(2,2-difluoroethyl)-3-methyl-2,3,4,9-tetrahydro-1H-pyrido[3,4-b]indol-1-yl)-3-methoxyphenyl)piperidin-4-yl)methyl)-1-oxo-1,3,5,5a,6,7,8,9-octahydro-2H-pyrazino[1′,2′:4,5][1,4]oxazino[2,3-e]isoindol-2-yl)piperidine-2,6-dione] | < 1 | 50 to 75 | 500 to 5000 | < 1 | 50 to 75
7 | COc1cc(N2CCC(CN3CCN(c4ccc(C(=O)N[C@H]5CCC(=O)NC5=O)nc4)CC3)CC2)ccc1[C@@H]1c2[nH]c3ccccc3c2C[C@@H](C)N1CC(F)F [Compound A43, 5-(4-((1-(4-((1R,3R)-2-(2,2-difluoroethyl)-3-methyl-2,3,4,9-tetrahydro-1H-pyrido[3,4-b]indol-1-yl)-3-methoxyphenyl)piperidin-4-yl)methyl)piperazin-1-yl)-N—((S)-2,6-dioxopiperidin-3-yl)picolinamide formate] | < 1 | 50 to 75 | 500 to 5000 | < 1 | 50 to 75
8 | C[C@H]1Cc2c([nH]c3ccccc23)[C@H](c2cnc(N3CCC4(CC3)C[C@@H](CN3CCC(c5ccc(N[C@@H]6CCC(=O)NC6=O)cc5)CC3)CO4)nc2)N1CC(F)F [Compound A66, (R)-3-((4-(1-(((S)-8-(5-((1S,3S)-2-(2,2-difluoroethyl)-3-methyl-2,3,4,9-tetrahydro-1H-pyrido[3,4-b]indol-1-yl)pyrimidin-2-yl)-1-oxa-8-azaspiro[4.5]decan-3-yl)methyl)piperidin-4-yl)phenyl)amino)piperidine-2,6-dione] | < 1 | 50 to 75 | 50 to 500 | 1 to 10 | > 75
9 | C[C@@H]1Cc2c([nH]c3ccccc23)[C@H](c2cnc(N3CCC4(CC3)C[C@@H](CN3CCN5c6ccc(C(=O)N[C@H]7CCC(=O)NC7=O)nc6OC[C@H]5C3)CO4)nc2)N1CC(F)F [Compound A65, (R)-3-(((S)-8-(5-((1S,3R)-2-(2,2-difluoroethyl)-3-methyl-2,3,4,9-tetrahydro-1H-pyrido[3,4-b]indol-1-yl)pyrimidin-2-yl)-1-oxa-8-azaspiro[4.5]decan-3-yl)methyl)-N-((S)-2,6-dioxopiperidin-3-yl)-1,2,3,4,4a,5-hexahydropyrazino[1,2-d]pyrido[2,3-b][1,4]oxazine-8-carboxamide] | 1 to 10 | 50 to 75 | 50 to 500 | 1 to 10 | 50 to 75
10 | COc1cc(N2CCC(CN3CCN(c4ccc(C(=O)N[C@@H]5CCC(=O)NC5=O)nc4)CC3)CC2)ccc1[C@@H]1c2[nH]c3ccccc3c2C[C@@H](C)N1CC(F)F [Compound A57, 5-(4-((1-(4-((1R,3R)-2-(2,2-difluoroethyl)-3-methyl-2,3,4,9-tetrahydro-1H-pyrido[3,4-b]indol-1-yl)-3-methoxyphenyl)piperidin-4-yl)methyl)piperazin-1-yl)-N-((R)-2,6-dioxopiperidin-3-yl)picolinamide formate] | < 1 | 50 to 75 | < 50 | < 1 | 25 to 50
11 | COc1cc(N2CCC(CN3CCN4c5ccc(C(=O)NC6CCC(=O)NC6=O)nc5OC[C@H]4C3)CC2)ccc1[C@H]1c2[nH]c3ccccc3c2C[C@H](C)N1CC(F)F (stereo partly drawn) [Compound A54, (4aR)-3-((1-(4-((1S,3S)-2-(2,2-difluoroethyl)-3-methyl-2,3,4,9-tetrahydro-1H-pyrido[3,4-b]indol-1-yl)-3-methoxyphenyl)piperidin-4-yl)methyl)-N-(2,6-dioxopiperidin-3-yl)-1,2,3,4,4a,5-hexahydropyrazino[1,2-d]pyrido[2,3-b][1,4]oxazine-8-carboxamide] | < 1 | 50 to 75 | 500 to 5000 | < 1 | 50 to 75

Source: US20260007681A1, “INDOLE DERIVATIVES AS ESTROGEN RECEPTOR DEGRADERS” (REGENTS OF THE UNIVERSITY OF MICHIGAN, priority 2022, published 2026)
